Measurements from ChEMBL document CHEMBL1156014, “Synthesis of antibacterial pseudopeptides with less hemolytic activity from a cytotoxic peptide and their pH-dependent activity” (Bioorg Med Chem Lett, 2009).
In brackets after ≈: the same amount, converted by molar mass. Where a SMILES comes first, the peptide text is derived from it. The star is where a group is joined. X2 = CC(C)C[C@H](NC[C@H](CCCCN)N*)C(=O)N[C@@H](CC(C)C)C(=O)N[C@@H](CCCCN)C(N)=O

Legend:
Escherichia coli [1] = test: Antibacterial activity against Escherichia coli ATCC 25922 at pH 7.4; assay type: functional
Staphylococcus aureus [2] = test: Antibacterial activity against Staphylococcus aureus ATCC 6538 at pH 8.4; assay type: functional
Staphylococcus aureus [3] = test: Antibacterial activity against Staphylococcus aureus ATCC 6538 at pH 7.4; assay type: functional
Pseudomonas aeruginosa [4] = test: Antibacterial activity against Pseudomonas aeruginosa ATCC 9027 at pH 8.4; assay type: functional
Micrococcus luteus [5] = test: Antibacterial activity against Micrococcus luteus ATCC 9341 at pH 8.4; assay type: functional
[6] = Permeability across Escherichia coli large unilamellar vesicles assessed as calcein entrapped leakage from phosphatidylglycerol/phosphatidylcholine at pH 7.4; assay type: ADME
[7] = Toxicity in human erythrocytes assessed as hemolytic activity up to 200 ug/ml at pH 7.4 after 1 hr; assay type: cell-based; conditions: erythrocyte, pH 7.4, 1 h
Micrococcus luteus [8] = test: Antibacterial activity against Micrococcus luteus ATCC 9341 at pH 7.4; assay type: functional
Escherichia coli [9] = test: Antibacterial activity against Escherichia coli ATCC 25922 at pH 8.4; assay type: functional
[10] = Permeability across Escherichia coli large unilamellar vesicles assessed as calcein entrapped leakage from phosphatidylglycerol/phosphatidylcholine at pH 8.4; assay type: ADME
Pseudomonas aeruginosa [11] = test: Antibacterial activity against Pseudomonas aeruginosa ATCC 9027 at pH 7.4; assay type: functional
[12] = Permeability across Escherichia coli large unilamellar vesicles assessed as calcein entrapped leakage from phosphatidylglycerol/phosphatidylcholine at 15 uM at pH 8.4; assay type: ADME; conditions: pH 8.4, 15 µM
[13] = Permeability across Escherichia coli large unilamellar vesicles assessed as calcein entrapped leakage from phosphatidylglycerol/phosphatidylcholine at 7.5 uM at pH 7.4; assay type: ADME; conditions: pH 7.4, 7.5 µM

## CC(=O)N[C@@H](CCCCN)C(=O)N[C@@H](CC(C)C)C(=O)N[C@@H](CC(C)C)C(=O)N[C@@H](CC(C)C)C(=O)N[C@@H](CCCCN)C(=O)N[C@@H](CC(C)C)C(=O)N[C@@H](Cc1c[nH]c2ccccc12)C(=O)N[C@@H](CC(C)C)C(=O)N[C@@H](CCCCN)CN[C@@H](CC(C)C)C(=O)N[C@@H](CC(C)C)C(=O)N[C@@H](CCCCN)C(N)=O (Ac-KLLLKLWL-X2)
Escherichia coli [1]
  MIC: 12.5 µg/mL (≈ 8.14 µM)
Staphylococcus aureus [2]
  MIC: 12.5 µg/mL (≈ 8.14 µM)
Staphylococcus aureus [3]
  MIC: 6.25 µg/mL (≈ 4.07 µM)
Pseudomonas aeruginosa [4]
  MIC: 50 µg/mL (≈ 32.5 µM)
Micrococcus luteus [5]
  MIC: 6.25 µg/mL (≈ 4.07 µM)
[6]
  Activity: Dose-dependent effect
[7]
  Activity: Not Active
Micrococcus luteus [8]
  MIC: 6.25 µg/mL (≈ 4.07 µM)
Escherichia coli [9]
  MIC: 25 µg/mL (≈ 16.3 µM)
[10]
  Activity: Dose-dependent effect
Pseudomonas aeruginosa [11]
  MIC: 50 µg/mL (≈ 32.5 µM)

## Ac-KLLLKLWLKLLK-NH2
Escherichia coli [1]
  MIC: 12.5 µg/mL
Staphylococcus aureus [2]
  MIC: 25 µg/mL
Staphylococcus aureus [3]
  MIC: 6.25 µg/mL
Pseudomonas aeruginosa [4]
  MIC: 50 µg/mL
Micrococcus luteus [5]
  MIC: 6.25 µg/mL
[6]
  Activity: Dose-dependent effect
Micrococcus luteus [8]
  MIC: 6.25 µg/mL
[12]
  Activity: 80%
Escherichia coli [9]
  MIC: 50 µg/mL
[13]
  Activity: 90%
[10]
  Activity: Dose-dependent effect
Pseudomonas aeruginosa [11]
  MIC: 50 µg/mL
